Measured values reported in ChEMBL document CHEMBL4229346, “New insights in the structure-activity relationships of 2-phenylamino-substituted benzothiopyrano[4,3-d]pyrimidines as kinase inhibitors” (Eur J Med Chem, 2018).

What was measured:
[1] = Growth inhibition of HUVEC after 72 hrs by trypan blue assay; assay type: cell-based; details: human, HUVEC cells
A-431 = test: Growth inhibition of human A431 cells after 72 hrs by trypan blue assay; assay type: functional; details: A-431, 72 h
MSTO-211H = test: Growth inhibition of human MSTO-211H cells after 72 hrs by trypan blue assay; assay type: functional
HeLa = test: Growth inhibition of human HeLa cells after 72 hrs by trypan blue assay; assay type: functional
[2] = target: T1, Aurora kinase A (Homo sapiens) (UniProt O14965); test: Inhibition of recombinant human Aurora-A at 10^-5 M using Ulight-RRRSLLE as substrate measured after 15 mins by LANCE assay relative to control
T1 sequence (whole entry): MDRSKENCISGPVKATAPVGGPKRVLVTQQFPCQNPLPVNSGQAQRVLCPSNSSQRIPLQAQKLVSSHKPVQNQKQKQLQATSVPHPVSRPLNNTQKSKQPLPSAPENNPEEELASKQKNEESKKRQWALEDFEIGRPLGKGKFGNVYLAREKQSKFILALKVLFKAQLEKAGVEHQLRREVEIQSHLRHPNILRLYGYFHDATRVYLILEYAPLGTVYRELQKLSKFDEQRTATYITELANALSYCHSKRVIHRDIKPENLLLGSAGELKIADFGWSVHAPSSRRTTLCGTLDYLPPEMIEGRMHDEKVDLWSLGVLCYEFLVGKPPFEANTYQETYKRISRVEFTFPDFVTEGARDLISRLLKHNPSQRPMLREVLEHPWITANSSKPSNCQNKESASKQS

[3] = target: Vascular endothelial growth factor receptor 2 (Homo sapiens, UniProt P35968); test: Inhibition of recombinant human His-tagged KDR cytoplasmic domain (789 to 1356 residues) expressed in baculovirus expression system using Z'-LYTE-Tyr1 as substrate measured after 1 hr by Z'-LYTE assay
Sequence of Vascular endothelial growth factor receptor 2 (P35968 whole entry, the tested form may be a part): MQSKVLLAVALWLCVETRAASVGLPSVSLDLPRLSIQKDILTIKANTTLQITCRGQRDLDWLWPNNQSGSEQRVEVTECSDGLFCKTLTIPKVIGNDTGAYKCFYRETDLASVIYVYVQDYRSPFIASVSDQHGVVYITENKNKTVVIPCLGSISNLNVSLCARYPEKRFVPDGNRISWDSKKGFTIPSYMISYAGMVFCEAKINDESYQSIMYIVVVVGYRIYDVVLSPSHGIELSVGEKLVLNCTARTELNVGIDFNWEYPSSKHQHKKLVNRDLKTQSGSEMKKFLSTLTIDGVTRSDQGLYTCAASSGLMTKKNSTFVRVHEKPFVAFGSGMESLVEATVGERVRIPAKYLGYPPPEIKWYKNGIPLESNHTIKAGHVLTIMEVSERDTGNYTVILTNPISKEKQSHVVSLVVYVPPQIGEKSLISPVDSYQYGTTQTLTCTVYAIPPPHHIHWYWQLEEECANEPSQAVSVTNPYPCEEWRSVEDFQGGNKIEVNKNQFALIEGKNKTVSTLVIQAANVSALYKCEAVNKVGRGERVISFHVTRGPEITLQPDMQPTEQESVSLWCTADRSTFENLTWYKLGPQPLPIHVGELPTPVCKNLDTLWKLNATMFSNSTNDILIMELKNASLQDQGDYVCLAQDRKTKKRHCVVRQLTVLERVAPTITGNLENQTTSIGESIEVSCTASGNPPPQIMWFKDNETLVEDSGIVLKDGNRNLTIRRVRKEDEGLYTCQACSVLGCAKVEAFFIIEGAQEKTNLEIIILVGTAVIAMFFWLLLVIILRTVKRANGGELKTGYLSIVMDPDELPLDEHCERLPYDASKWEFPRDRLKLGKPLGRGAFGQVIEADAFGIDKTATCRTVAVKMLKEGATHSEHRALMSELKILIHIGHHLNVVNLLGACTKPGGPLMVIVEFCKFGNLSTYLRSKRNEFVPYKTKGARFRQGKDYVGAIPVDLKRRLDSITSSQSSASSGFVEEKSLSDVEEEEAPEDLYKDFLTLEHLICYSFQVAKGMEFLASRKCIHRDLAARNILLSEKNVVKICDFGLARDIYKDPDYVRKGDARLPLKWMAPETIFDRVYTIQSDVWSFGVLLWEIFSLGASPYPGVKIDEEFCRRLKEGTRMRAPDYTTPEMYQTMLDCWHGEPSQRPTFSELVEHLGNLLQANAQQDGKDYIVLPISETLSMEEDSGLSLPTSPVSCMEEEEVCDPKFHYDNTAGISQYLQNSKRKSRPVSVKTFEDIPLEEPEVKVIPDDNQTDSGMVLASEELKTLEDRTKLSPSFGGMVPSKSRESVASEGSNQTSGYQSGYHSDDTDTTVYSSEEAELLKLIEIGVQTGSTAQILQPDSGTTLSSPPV

[4] = target: RAF proto-oncogene serine/threonine-protein kinase (Homo sapiens) (UniProt P04049); test: Inhibition of recombinant human RAF1 at 10^-5 M relative to control
Sequence of RAF proto-oncogene serine/threonine-protein kinase (Homo sapiens) (P04049 whole entry): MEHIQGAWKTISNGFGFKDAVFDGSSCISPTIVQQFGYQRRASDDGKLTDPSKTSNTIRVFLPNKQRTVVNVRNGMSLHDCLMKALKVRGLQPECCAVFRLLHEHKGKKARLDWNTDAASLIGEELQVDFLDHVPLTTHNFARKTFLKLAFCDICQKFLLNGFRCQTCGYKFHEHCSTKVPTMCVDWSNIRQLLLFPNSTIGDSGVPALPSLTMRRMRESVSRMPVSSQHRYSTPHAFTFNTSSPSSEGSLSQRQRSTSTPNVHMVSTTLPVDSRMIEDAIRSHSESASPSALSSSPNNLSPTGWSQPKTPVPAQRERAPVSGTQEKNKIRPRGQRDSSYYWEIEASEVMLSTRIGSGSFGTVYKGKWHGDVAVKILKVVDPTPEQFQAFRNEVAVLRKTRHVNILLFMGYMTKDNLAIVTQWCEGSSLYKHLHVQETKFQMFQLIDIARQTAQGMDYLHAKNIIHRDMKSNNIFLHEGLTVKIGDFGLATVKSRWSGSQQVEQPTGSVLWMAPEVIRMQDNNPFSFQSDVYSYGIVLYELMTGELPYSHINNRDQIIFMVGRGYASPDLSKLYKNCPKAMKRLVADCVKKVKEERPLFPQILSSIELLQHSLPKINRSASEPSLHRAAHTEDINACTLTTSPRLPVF

[5] = target: Platelet-derived growth factor receptor beta (Homo sapiens) (UniProt P09619); test: Inhibition of recombinant human PDGFRbeta at 10^-5 M using Ulight-Poly GAT[EAY(1:1:1)]n as substrate measured after 30 mins by LANCE assay relative to control
Sequence of Platelet-derived growth factor receptor beta (Homo sapiens) (P09619 whole entry): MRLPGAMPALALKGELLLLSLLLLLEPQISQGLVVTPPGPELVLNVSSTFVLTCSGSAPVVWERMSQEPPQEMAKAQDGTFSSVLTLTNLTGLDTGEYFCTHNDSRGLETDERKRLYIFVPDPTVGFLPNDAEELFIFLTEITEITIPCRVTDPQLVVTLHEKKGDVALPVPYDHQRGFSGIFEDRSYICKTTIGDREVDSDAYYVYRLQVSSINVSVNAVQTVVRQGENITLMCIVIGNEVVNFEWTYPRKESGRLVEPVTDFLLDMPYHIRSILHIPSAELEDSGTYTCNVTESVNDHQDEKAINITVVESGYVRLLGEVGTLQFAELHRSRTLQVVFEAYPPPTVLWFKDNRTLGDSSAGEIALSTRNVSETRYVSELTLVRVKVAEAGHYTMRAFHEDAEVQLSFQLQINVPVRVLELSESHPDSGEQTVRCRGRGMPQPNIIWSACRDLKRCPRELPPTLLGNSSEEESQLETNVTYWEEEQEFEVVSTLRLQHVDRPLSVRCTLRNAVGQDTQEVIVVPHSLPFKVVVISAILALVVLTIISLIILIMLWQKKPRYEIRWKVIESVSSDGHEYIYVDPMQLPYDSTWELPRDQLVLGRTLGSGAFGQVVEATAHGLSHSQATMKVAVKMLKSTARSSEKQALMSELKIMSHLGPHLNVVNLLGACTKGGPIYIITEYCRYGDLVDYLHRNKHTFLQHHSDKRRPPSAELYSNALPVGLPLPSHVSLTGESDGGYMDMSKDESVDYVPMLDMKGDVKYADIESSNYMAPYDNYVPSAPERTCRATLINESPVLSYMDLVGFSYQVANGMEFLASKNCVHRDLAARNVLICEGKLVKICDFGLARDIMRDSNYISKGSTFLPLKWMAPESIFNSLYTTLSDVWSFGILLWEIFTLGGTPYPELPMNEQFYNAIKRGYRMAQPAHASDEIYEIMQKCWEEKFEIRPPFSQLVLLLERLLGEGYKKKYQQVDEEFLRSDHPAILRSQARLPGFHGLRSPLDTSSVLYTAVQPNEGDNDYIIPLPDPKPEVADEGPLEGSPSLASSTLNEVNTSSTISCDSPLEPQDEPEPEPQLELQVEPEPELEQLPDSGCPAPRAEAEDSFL

[6] = target: Cyclin-dependent kinase 1/cyclin B1 (Homo sapiens) (UniProt P06493+P14635); test: Inhibition of recombinant human CDK1/Cyclin B at 10^-5 M using Ulight-CFFKNIVTPRTPPPSQGK-amide as substrate measured after 15 mins by LANCE assay relative to control; assay type: protein-complex assay
Sequence of Cyclin-dependent kinase 1/cyclin B1 (Homo sapiens) (P06493 whole entry, looked up): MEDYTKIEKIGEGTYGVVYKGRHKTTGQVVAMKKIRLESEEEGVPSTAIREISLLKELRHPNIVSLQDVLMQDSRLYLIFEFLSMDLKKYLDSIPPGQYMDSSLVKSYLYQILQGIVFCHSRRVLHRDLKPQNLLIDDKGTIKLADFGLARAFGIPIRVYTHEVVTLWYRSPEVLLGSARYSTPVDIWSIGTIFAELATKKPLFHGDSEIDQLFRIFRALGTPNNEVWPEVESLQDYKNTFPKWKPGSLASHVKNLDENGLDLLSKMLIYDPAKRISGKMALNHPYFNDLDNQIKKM
Sequence of Cyclin-dependent kinase 1/cyclin B1 (Homo sapiens) (P14635 whole entry, looked up): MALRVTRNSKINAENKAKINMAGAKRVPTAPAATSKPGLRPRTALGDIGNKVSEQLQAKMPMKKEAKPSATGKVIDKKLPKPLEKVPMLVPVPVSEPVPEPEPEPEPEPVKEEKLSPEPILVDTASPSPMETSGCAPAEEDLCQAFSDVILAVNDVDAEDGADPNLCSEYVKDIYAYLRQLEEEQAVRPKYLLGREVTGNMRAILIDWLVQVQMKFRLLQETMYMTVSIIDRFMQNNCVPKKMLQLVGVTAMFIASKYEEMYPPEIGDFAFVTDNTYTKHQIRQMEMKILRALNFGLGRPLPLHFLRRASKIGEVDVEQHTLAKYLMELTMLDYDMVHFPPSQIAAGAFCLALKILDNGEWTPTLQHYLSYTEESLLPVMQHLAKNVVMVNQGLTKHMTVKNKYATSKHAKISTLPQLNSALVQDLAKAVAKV

[7] = target: Epidermal growth factor receptor (Homo sapiens) (UniProt P00533); test: Inhibition of recombinant human EGFR at 10^-5 M using Ulight-CAGAGAIETDKEYYTVKD as substrate measured after 15 mins by LANCE assay relative to control
Sequence of Epidermal growth factor receptor (Homo sapiens) (P00533 whole entry): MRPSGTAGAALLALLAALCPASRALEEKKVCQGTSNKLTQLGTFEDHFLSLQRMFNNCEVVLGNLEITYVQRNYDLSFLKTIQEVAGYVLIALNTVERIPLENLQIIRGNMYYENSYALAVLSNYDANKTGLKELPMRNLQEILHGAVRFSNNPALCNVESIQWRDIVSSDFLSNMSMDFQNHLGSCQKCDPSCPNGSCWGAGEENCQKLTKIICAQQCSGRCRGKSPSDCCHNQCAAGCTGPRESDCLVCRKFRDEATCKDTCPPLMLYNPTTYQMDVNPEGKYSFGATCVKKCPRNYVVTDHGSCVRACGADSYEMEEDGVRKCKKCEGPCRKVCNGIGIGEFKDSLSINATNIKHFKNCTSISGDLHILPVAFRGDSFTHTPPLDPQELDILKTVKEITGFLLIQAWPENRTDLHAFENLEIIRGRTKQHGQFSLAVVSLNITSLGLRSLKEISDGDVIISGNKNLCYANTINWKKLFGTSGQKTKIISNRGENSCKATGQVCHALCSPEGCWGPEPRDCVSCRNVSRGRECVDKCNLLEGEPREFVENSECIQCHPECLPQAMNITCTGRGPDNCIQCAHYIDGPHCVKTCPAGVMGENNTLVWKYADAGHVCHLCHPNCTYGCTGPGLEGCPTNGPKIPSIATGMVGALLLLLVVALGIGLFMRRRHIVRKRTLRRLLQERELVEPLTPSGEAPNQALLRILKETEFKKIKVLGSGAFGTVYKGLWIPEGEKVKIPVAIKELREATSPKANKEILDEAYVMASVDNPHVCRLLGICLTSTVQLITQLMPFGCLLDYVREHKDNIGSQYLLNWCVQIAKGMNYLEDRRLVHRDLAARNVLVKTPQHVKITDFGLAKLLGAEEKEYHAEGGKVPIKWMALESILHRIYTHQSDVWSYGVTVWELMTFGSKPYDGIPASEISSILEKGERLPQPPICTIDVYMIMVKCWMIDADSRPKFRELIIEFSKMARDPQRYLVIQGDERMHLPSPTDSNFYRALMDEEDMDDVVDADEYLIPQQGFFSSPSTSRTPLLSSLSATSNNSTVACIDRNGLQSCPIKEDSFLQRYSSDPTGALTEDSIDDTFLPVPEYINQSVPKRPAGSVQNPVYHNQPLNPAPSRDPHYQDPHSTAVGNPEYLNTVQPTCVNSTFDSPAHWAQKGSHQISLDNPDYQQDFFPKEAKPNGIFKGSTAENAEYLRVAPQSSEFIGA

[8] = target: Proto-oncogene tyrosine-protein kinase Src (Homo sapiens) (UniProt P12931); test: Inhibition of recombinant human Src at 10^-5 M using Ulight-Poly GAT[EAY(1:1:1)]n as substrate measured after 10 mins by LANCE assay relative to control

Row | SMILES | GI50 (A-431) | GI50 (HeLa) | inhibition [2] | IC50 [3] | inhibition [4] | inhibition [5] | inhibition [6] | inhibition [7] | inhibition [8] | GI50 at 72 h [1] | GI50 (MSTO-211H)
1 | Fc1cccc(Nc2ncc3c(n2)-c2ccc(Cl)cc2SC3)c1 | 18.2 µM | 20 µM | – | – | – | – | – | – | – | 18.2 µM | > 20 µM
2 | Clc1cccc(Nc2ncc3c(n2)-c2ccccc2SC3)c1 | 10.4 µM | > 20 µM | – | – | – | – | – | – | – | 7.13 µM | 6.1 µM
3 | Brc1cccc(Nc2ncc3c(n2)-c2ccccc2SC3)c1 | 10.6 µM | > 20 µM | – | – | – | – | – | – | – | 7 µM | 7.67 µM
4 | COc1ccc2c(c1)SCc1cnc(Nc3cccc(F)c3)nc1-2 | 15.5 µM | 10.3 µM | – | – | – | – | – | – | – | 11.5 µM | 13 µM
5 | Clc1cccc(Nc2ncc3c(n2)-c2ccc(Cl)cc2SC3)c1 | > 20 µM | > 20 µM | – | – | – | – | – | – | – | 16.5 µM | 7.78 µM
6 | FC(F)(F)c1cccc(Nc2ncc3c(n2)-c2ccc(Cl)cc2SC3)c1 | 10 µM | > 20 µM | – | – | – | – | – | – | – | 10.5 µM | 3.18 µM
7 | COc1cccc(Nc2ncc3c(n2)-c2ccc(Cl)cc2SC3)c1 | 16.8 µM | > 20 µM | – | – | – | – | – | – | – | 14.2 µM | 6.83 µM
8 | COc1cccc(Nc2ncc3c(n2)-c2ccccc2SC3)c1 | 9.43 µM | 6.03 µM | – | – | – | – | – | – | – | 0.8 µM | 0.8 µM
9 | FC(F)(F)c1cccc(Nc2ncc3c(n2)-c2ccccc2SC3)c1 | 13.5 µM | > 20 µM | – | – | – | – | – | – | – | 5.02 µM | 11.8 µM
10 | Clc1ccc2c(c1)SCc1cnc(Nc3cccc(Br)c3)nc1-2 | 17 µM | > 20 µM | – | – | – | – | – | – | – | 7.11 µM | 8.5 µM
11 | Cc1cc(C)c(/C=C2\C(=O)Nc3ccccc32)[nH]1 [SEMAXANIB] | 37 µM | 38 µM | – | – | – | – | – | – | – | – | 27 µM
12 | Fc1cccc(Nc2ncc3c(n2)-c2ccccc2SC3)c1 | 9.76 µM | 14 µM | – | – | – | – | – | – | – | 4.51 µM | 2.06 µM

These reach a lower GI50 (A-431). Values come first.

Row | GI50 (A-431) | GI50 (HeLa) | inhibition [2] | IC50 [3] | inhibition [4] | inhibition [5] | inhibition [6] | inhibition [7] | inhibition [8] | SMILES | GI50 at 72 h [1] | GI50 (MSTO-211H)
13 | 4.27 µM | 3.46 µM | – | – | – | – | – | – | – | COc1cc(Nc2ncc3c(n2)-c2ccc(Cl)cc2SC3)cc(OC)c1OC | 2.54 µM | 3.4 µM
14 | 1.75 µM | 0.63 µM | – | – | – | – | – | – | – | COc1ccc2c(c1)SCc1cnc(Nc3cc(OC)c(OC)c(OC)c3)nc1-2 | 3.71 µM | 0.92 µM
15 | 8.25 µM | 11.9 µM | – | – | – | – | – | – | – | COc1ccc2c(c1)SCc1cnc(Nc3cccc(Cl)c3)nc1-2 | 11.2 µM | 5.6 µM
16 | 2.23 µM | 3.42 µM | – | – | – | – | – | – | – | COc1ccc(Nc2ncc3c(n2)-c2ccc(Cl)cc2SC3)cc1OC | 2.53 µM | 4.4 µM
17 | 6.24 µM | 6.02 µM | – | – | – | – | – | – | – | COc1ccc2c(c1)SCc1cnc(Nc3cccc(C(F)(F)F)c3)nc1-2 | 4.55 µM | 9.04 µM
18 | 2.32 µM | 1.5 µM | 88.6% | 0.11 µM | 6.1% | 39.9% | 47.4% | 6.5% | 53% | COc1ccc(Nc2ncc3c(n2)-c2ccccc2SC3)cc1OC | 1.5 µM | 1.63 µM
19 | 1.92 µM | 1.26 µM | – | – | – | – | – | – | – | COc1cc(Nc2ncc3c(n2)-c2ccccc2SC3)cc(OC)c1OC | 1.99 µM | 1.08 µM
20 | 2.1 µM | 2.8 µM | – | – | – | – | – | – | – | COc1cccc(Nc2ncc3c(n2)-c2ccc(OC)cc2SC3)c1 | 2.49 µM | 2.57 µM
21 | 6.06 µM | 18.8 µM | – | – | – | – | – | – | – | COc1ccc2c(c1)SCc1cnc(Nc3ccc(OC)c(OC)c3)nc1-2 | 10.8 µM | > 20 µM
22 | 4.77 µM | 2.93 µM | – | – | – | – | – | – | – | COc1ccc2c(c1)SCc1cnc(Nc3cccc(Br)c3)nc1-2 | 1.89 µM | 2.2 µM
